Laboratory results as given in patent publication US10235756B2, “Vascular analysis methods and apparatus” (Bio-Tree Systems, Inc., priority 2009, dated 2019).

Tests used:
[1] = tested on: glioblastoma; experiment: Vascular biomarker analysis of control and Avastin-treated glioblastoma (3D tumor vasculature, tumor wrap); format: in vivo
Excerpt: X-ray images of a control tumor and an Avastin-treated tumor are shown side by side in FIG. 43. […] FIGS. 46 and 47 show exemplary tumor wraps of the same control and Avastin-treated tumors. FIGS. 48-52 exemplify visualization of the distribution of microvascular density within two exemplary tumors.
In some embodiments, the assessment of vascular hot spots and/or necrotic regions within a diseased tissue, for example a malignant tumor, may be used in the evaluation of a treatment targeting said diseased tissue, for example the administration of a chemotherapeutic agent. FIG. 54 exemplify a comparison of vascular hot spots and necrotic regions in glioblastoma treated with Avastin to vascular hot spots and necrotic regions in non-treated control glioblastoma. […] Assessment of an exemplary vascular density related biomarker, total vessel density (number of vessels per given volume), in Avastin-treated glioblastoma and untreated controls is depicted in FIG. 56. Assessment of another exemplary vascular density related biomarker, mean vessel density (average number of vessels over a number of volume units, for example defined by the boundary of a tumor), in Avastin-treated glioblastoma and untreated controls as depicted in FIG. 57. Assessment of an exemplary vascular density related biomarker, total vessel volume density (number of voxels belonging to a vessel within a given volume), in Avastin-treated glioblastoma and untreated controls is depicted in FIG. 58. Assessment of another exemplary vascular density related biomarker, mean vessel volume density (average number of voxels belonging to a vessel within a number of volume units, for example defined by the boundary of a tumor), in Avastin-treated glioblastoma and untreated controls as depicted in FIG. 59. In some embodiments, a boundary of a tissue, for example a tumor, are determined based on vascular imaging and modeling data, and a subsequent assessment qualifying a voxel within those boundaries is carried out. In some embodiments, a biomarker is […] in a plurality of such qualified voxels. For example, the boundary of a solid tumor may be determined based on the abnormal vasculature associated with malignant tissue, for example by “tumor-wrap”, and vascular density related biomarkers may be assessed for tissue within that boundary.
It should be appreciated, that the biomarkers related to by some aspects of this invention may be useful in a wide variety of diagnostic and therapeutic modalities and applications, some non-limiting examples of which are described herein.

[2] = tested on: human non-small cell lung tumor cell line (A549) subcutaneous tumors; experiment: Xenotopic tumor model, response to antiangiogenic therapy (vascular casts, micro CT); format: in vivo, mouse
Protocol: A tumor model can be generated by inoculating human non-small cell lung tumor cell line (A549 from ATCC, Inc.) subcutaneously in immunodeficient mice (SCID). SCID male mice (6-8 weeks old from Charles River Inc.) are inoculated subcutaneously in the lower back with a suspension of 1×10^6 human lung tumor cells (A549) in 0.2 ml of PBS. All mice are fed normal chow diet throughout the duration of the experiment. All mice weights are measured throughout the experiment. Tumor size is measured with calipers twice-a-week and tumor volume is calculated using the formula Length^2×Width×0.52. All mice are randomized into two treatment groups (approximately 10 mice per group) when the median tumor volume reaches approximately 500 mm^3. The treatment groups can be treated according to the following schedule using intraperitoneal (i.p.) administration of either a control composition or an anti-angiogenic compound. For example, different levels of an anti-angiogenic compound can be used and the results compared to a control group that is not treated with an anti-angiogenic compound (e.g., Avastin® available from Genentech, South San Francisco, Calif.). For example:
Group 1: Control group—treated with saline/PBS twice a week.
Group 2: High Avastin®—treated with Avastin® at 5 mg/kg/i.p. twice a week.
Group 3: Low Avastin®—treated with Avastin® at 0.5 mg/kg/i.p. twice a week.
Experiments are terminated 1.5 weeks after initial treatment.
At the end-point, all mice are anesthetized and systemically perfused with a casting agent.
In some embodiments, a tissue, for example, a tumor tissue, is perfused with a contrast and/or a casting agent prior to image acquisition. Methods of tissue perfusion are well known to those of skill in the art. In some embodiments, a tissue is perfused with Mercox, a casting agent available, for example, from Ladd Research, Williston, Vt. Mercox perfusion can be performed, as follows. An initial anticoagulation step for each animal is performed using an i.v. injection of heparin (10,000 U/ml, 0.3 cc/mouse). After 30 minutes, the animals are anesthetized. Each animal's heart is cannulated and the animal perfused with warm physiological saline at physiological pressure (with an open vein draining the organ or with an open vena cava). Perfusion is continued until the organ or animal is clear of blood. Mercox monomer is filtered through a 0.5 μm filter and a casting resin is prepared by mixing 8 ml Mercox, 2 ml methylmethacrylate, and 0.3 ml catalyst. The resin is infused through the same cannula until the onset of polymerization (the resin changes color to brown and emits heat, ˜10 min). The organ or animal is carefully immersed in a 60° C. water bath for 2 hours (or overnight in a sealed container). The tissue is removed by incubating in alternating rinses of 5% KOH and distilled water (for example in a 60° C. water bath sealed) followed by thorough rinsing in distilled water. The cast is cleaned in 5% formic acid for 15 minutes and rinsed thoroughly in distilled water and frozen in distilled water. The resulting block of ice is lyophilized (care should be taken not to melt the ice, the ice should […] as it lyophilizes). The resulting cast can be analyzed to identify one or more structural characteristics of interest.
Xenotopic mouse models obtained as described in Example 7 can be treated with either a control solution of saline/PBS or an anti-angiogenic preparation of Avastin® at 0.5 mg/kg/i.p. as described above. At the end-point, vascular casts can be prepared as described in Example 8 above and may be analyzed for two treated mice (both treated with Avastin® at 0.5 mg/kg/i.p.) and one control mouse. However, other experimental configurations may be used. The resulting vascular casts can be scanned using a micro CT-scanner and exemplary results of the structural analysis are shown in FIGS. 44-47. […] The blood vessel population distributions were consistent for both treated animals. […]

[3] = tested on: mouse tumor model generated using H1975 cells; experiment: Hot spot analysis in mouse tumor model; format: in vivo
Excerpt: Applicant has appreciated that vascular information (e.g., based on vascular geometry) within a region (e.g., a wrapped 3D region) may be analyzed to identify one or more hot spots. For example, a threshold number of poker chips may be identified as a threshold for a hot spot within a unit volume of a tumor. The relative amount (e.g., percentage) of tumor vasculature that is represented by a hot spot then may be determined. This value may be used to evaluate the tumor (e.g., for diagnostic or prognostic purposes) or to evaluate a tumor response to therapy. In a non-limiting example, a hot spot may be defined as a cubic millimeter that contains more than 10,000 poker chips. FIGS. 73 and 74 illustrate experiments where the percentage represented by the hot spot regions (e.g., as a percentage of unit volumes within a tumor volume that are above the threshold for defining a hotspot) are evaluated in a mouse tumor model in response to Avastin treatment. The mouse tumor model was generated using H1975 cells. Mice were compared with and without Avastin treatment (Avastin provided for 10 days as described herein). The tumors analyzed were approximately 100 cubic mm in size. […]

[4] = tested on: vasculature; experiment: Morphological features as a function of vessel diameter, control vs treated vasculature; format: in vivo; conditions: control vasculature vs vasculature treated with Avastin, FIGS. 30-32
Excerpt: As discussed above, computed morphological features may be used to compare the same features obtained from healthy tissue, or to compare the same features extracted from a bounded vasculature at different points in time to, for example, assess the effectiveness of treatment. FIGS. 30-33 illustrate examples of using various morphological properties described herein to, for example, quantify diseased vasculature and/or assess the effectiveness of a particular treatment. FIGS. 30-32 illustrate plots of a respective morphological feature as a function of vessel diameter for a control vasculature and for a vasculature treated with Avastin. […] Moreover, the impact may differ depending on the vessel size. That is, differences between the control and treated plots may be larger or smaller depending on the diameter of the vessel. Applicant has appreciated that the differences may be quantified to define a range wherein differences are different enough to help determine which vessel diameters are being targeted and impacted by the treatment.

[5] = Avastin-treated vs non-treated control glioblastoma, FIG. 55
[6] = 0.5 mg/kg/i.p., treated vs untreated tumors

bevacizumab [Avastin]
hot spot density [1, 5]: significant decrease | necrotic region volume [1, 5]: significant increase | vessel volume density [1, 5]: significant decrease | frequency of microvascular density bins ([1]; control vs treated tumor, FIG. 53): different microvascular density bin distribution | mean tumor volumes ([2]; 0.5 mg/kg/i.p., treated vs control group at the end of the experiment): did not differ significantly | blood vessel density ([2]; 0.5 mg/kg/i.p., treated vs control, FIGS. 54-67): differences in blood vessel density were detected | percentage of middle diameter sized vessels [2, 6]: higher percentage | small diameter sized vessels, less than untreated tumors [2, 6]: 20% | vessel population ratio between large and middle size vessels ([2]; large approximately 147-161 μm, middle approximately 33-77 μm, after treatment): decreased | vessel population ratio between small and middle size vessels ([2]; small approximately 21-35 μm, middle approximately 35-49 μm, after inhibitor treatment): decreased | mean percentage of hot spot regions ([3]; Avastin provided for 10 days, over the time of the experiment, FIG. 73): decrease | percentage of hot spot regions after treatment ([3]; change of about 40% to about 10%, Avastin for 10 days, hot spot = cubic millimeter with more than 10,000 poker chips): about 10% | morphological features as a function of vessel diameter [4]: there are differences
